Here are results for 34 compounds from PubChem BioAssay AID850 (SRMLSC, 2007).

The subject of assay [1] is Saccharomyces cerevisiae growth inhibition, permissive control. The assay is described as follows: yeast lifespan-shortening chemical project counter-assay, dose-response inhibition of growth under permissive conditions (AID 850).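 Further: growth read as optical density after one day of incubation.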
Test in assay [2]: as above
Conditions: Saccharomyces cerevisiae growth inhibition, permissive control, measured here: maximum growth inhibition, stronger effect = higher value.

Activity calls are given as the source filed them. How the calls were made is not given here.

On to `OCc1ccnc2c(O)cccc12`, for which, in assay [1], the half-maximal inhibitory concentration (IC50) (commonly the midpoint of a concentration-inhibition curve) is 50.6 µM. Also, the inhibition (commonly the change of the read-out against control, counted positive when it falls) in assay [2] (at 50 µM) stood at 44.1%.

For `COCCN1CSC(=S)N(Cc2ccco2)C1`, the half-inhibitory concentration (IC50) in assay [1] is 34.5 µM. In addition, in assay [2] (at 50 µM), the inhibition came out at 64.7%.

`Oc1c(CN2CCCCC2)cc(Br)c2cccnc12`: the concentration for half-maximal inhibition (IC50) in assay [1] is 7.22 µM. Further, in assay [2] (at 50 µM), the inhibition amounted to 99.8%.

As for `O=C(NC1CCCCC1)Sc1ccc(Cl)cc1`, in assay [1], the IC50 was > 100 µM (inactive). Besides, in assay [2] (at 50 µM), the inhibition is 24.2%.

Take `CC1=NOC(=O)/C1=C\c1ccc(-c2ccc(Cl)cc2Cl)o1`: the IC50 in assay [1] is 32.3 µM. This compound yielded an inhibition in assay [2] (at 50 µM) of 80.5%.

For `Fc1ccc(Br)cc1C1C=C(c2cccnc2)Nc2ncnn21` (stereo not drawn), the IC50 in assay [1] was > 100 µM (inactive). Further, the inhibition in assay [2] (at 50 µM) was determined as 26.3%.

For `CC1/C(=N/O)CC(c2ccccc2)N(C)C1c1ccccc1` (stereo not drawn), the 50% inhibitory concentration (IC50) in assay [1] is < 0.098 µM. In assay [2] (at 25 µM), this compound registered an inhibition of 94.8%.

Consider `O=C(Oc1c(Cl)cc(Cl)c2cccnc12)c1cccs1`, for which the IC50 in assay [1] is 12.7 µM. Besides, in assay [2], the inhibition came to 100%.

On to `CC(=O)NC(c1cccs1)c1cc([N+](=O)[O-])c2cccnc2c1O` (stereo not drawn), for which the IC50 in assay [1] is > 100 µM (inactive). Besides, the inhibition in assay [2] (at 50 µM) amounted to 17.1%.

As to `Nc1[nH]c(=O)ncc1F`, the IC50 in assay [1] was 17.5 µM. The inhibition in assay [2] (at 50 µM) is 84.8%.

For the compound `O=C(O)CCn1cc(/C=C/C(=O)c2ccc(Cl)cc2)c(-c2ccc(Br)cc2)n1`, in assay [1], the IC50 is > 100 µM (inactive). In assay [2] (at 12.5 µM), this compound showed an inhibition of 15.3%.

As for `CC(=O)n1cc(C(C[N+](=O)[O-])SCCN)c2ccccc21` (stereo not drawn), in assay [1], the half-maximal inhibitory concentration (IC50) was 13.9 µM. Besides, the inhibition in assay [2] (at 50 µM) is 100%.

As to `CCc1nc2ccccc2c(=O)n1NC(=O)c1c(O)c2cccc3c2n(c1=O)CCC3`, the IC50 in assay [1] is > 100 µM (inactive). In assay [2] (at 50 µM), this compound came in with an inhibition of 2.73%.

Take `O=C1C(=C2CCCCC2)SC(=S)N1Cc1ccco1`: in assay [1], the IC50 was > 100 µM (inactive). In addition, in assay [2] (at 50 µM), the inhibition stood at 11.2%.

For the compound `CCc1cc2c(=O)[nH]c(-c3ccccn3)nc2s1`, the IC50 in assay [1] is 23.6 µM. The inhibition in assay [2] (at 50 µM) is 86.2%.

With `O=c1c2sc(-c3ccccc3)cc2nc2n1CCC2`, the 50% inhibitory concentration (IC50) in assay [1] was 14.6 µM. For the same compound, the inhibition in assay [2] (at 50 µM) came to 83.4%.

For the compound `CCCCCCCCCCCCCCCC[n+]1ccc(/C=N/O)cc1`, the half-maximal inhibitory concentration (IC50) in assay [1] was 1.07 µM. For the same compound, in assay [2] (at 50 µM), the inhibition worked out at 100%.

Take `COc1cccc(-n2nnnc2S(C)(=O)=O)c1`: the 50% inhibitory concentration (IC50) in assay [1] was 23.9 µM. Also, the inhibition in assay [2] (at 50 µM) was found to be 83.2%.

Take `Oc1c(Br)cc(Cl)cc1C=Nc1ccccc1Br`: the half-inhibitory concentration (IC50) in assay [1] was 7.27 µM. Besides, the inhibition in assay [2] (at 50 µM) was 100%.

As to `CCC(=O)NC(c1ccc(C)cc1)c1cc([N+](=O)[O-])c2cccnc2c1O` (stereo not drawn), in assay [1], the half-inhibitory concentration (IC50) is 43.5 µM. For the same compound, the inhibition in assay [2] (at 50 µM) was 60.6%.

With `CCn1c(Sc2nc(C)nc3scc(-c4cccs4)c23)n[nH]c1=O`, the IC50 in assay [1] was 22.9 µM. The same compound yielded an inhibition in assay [2] (at 25 µM) of 55.1%.

As for `Oc1c(Cl)cc(Cl)c2c1NCCC2`, the IC50 in assay [1] is 15.9 µM. The compound further showed an inhibition in assay [2] (at 50 µM) of 99.8%.

For the compound `COc1ccccc1N1CCN(C(CNC(=O)c2ccco2)c2cccnc2)CC1` (stereo not drawn), the IC50 in assay [1] is > 100 µM (inactive). In assay [2] (at 50 µM), this compound registered an inhibition of 18.3%.

Take `Cc1ccc(N2NC(C)(c3cccs3)NC2=S)cc1` (stereo not drawn): the IC50 in assay [1] was 12.1 µM. Besides, in assay [2] (at 25 µM), the inhibition is 94.1%.

For `Cc1ccc(-c2nc(N)sc2-c2ccccc2)cc1C`, in assay [1], the IC50 is > 100 µM (inactive). Also, the inhibition in assay [2] (at 6.25 µM) came to 16%.

As to `Cc1ccc(/C=C2\C(=O)NC(=S)N(c3ccccc3F)C2=O)s1`, the IC50 in assay [1] was > 100 µM (inactive). In assay [2] (at 6.25 µM), this compound had an inhibition of 29%.

For `COc1ccccc1N1CCN(Cc2cc(Br)c(O)c3ncccc23)CC1`, in assay [1], the IC50 is 12.7 µM. Besides, the inhibition in assay [2] (at 50 µM) worked out at 99.6%.

For `CCOc1cc(N2CCOCC2)c(OCC)cc1NC(=O)COc1cccc2cccnc12`, the IC50 in assay [1] is > 100 µM (inactive). In addition, in assay [2] (at 0.098 µM), the inhibition was determined as 11.3%.

Consider `O=C1CC(N2CCN(c3nc4ccccc4s3)CC2)C(=O)N1Cc1cccs1` (stereo not drawn), for which, in assay [1], the IC50 is > 100 µM (inactive). In assay [2] (at 0.781 µM), the inhibition was found to be 28.5%.

`Cc1nc2c(c(C)c1C#N)C(=O)c1ccccc1-2`: the IC50 in assay [1] is > 100 µM (inactive). The same compound registered an inhibition in assay [2] (at 50 µM) of 16%.

On to `O=C1c2cccc3c(Cl)ccc(c23)C(=O)N1O`, for which, in assay [1], the IC50 is 39.6 µM. The compound also showed an inhibition in assay [2] (at 50 µM) of 61.6%.

In the case of `O=C(O)c1ccccc1C(=O)NNc1ccc(Cl)cc1`, the IC50 in assay [1] is 7.11 µM. In assay [2] (at 50 µM), this compound had an inhibition of 96.5%.

Regarding `CCc1ccc2c(c1)C1(NN=C(c3ccccc3)S1)C(=O)N2` (stereo not drawn), the IC50 in assay [1] is 27.5 µM. Also, the inhibition in assay [2] (at 50 µM) was determined as 97.5%.

For the compound `COc1ccc(-c2cc(-c3ccccc3O)[nH]n2)cc1`, in assay [1], the IC50 is > 100 µM (inactive). This compound also displayed an inhibition in assay [2] (at 1.563 µM) of 3.65%.
